Measured values taken from ChEMBL document CHEMBL1130580, “Synthesis and biological activity of new bradykinin pseudopeptide B1 receptor agonists containing alkylic spacers” (Bioorg Med Chem Lett, 1997).
Numbered stars: 1 amine (or outer) side, 2 acyl side, 3 side chain; on linkers, the order of the positions; unused ones are H or OH. Square brackets hold non-standard residues; d marks the D form. Peptide text beside a SMILES is read from it. ξ: configuration not given here. Oic(3aξ,7aξ) = O=C(O)[C@@H]1CC2CCCCC2N1; X2 = O=C([C@H]1c2ccccc2CCN1[*:1])[*:2]; X1 = O=C(CCCCCCCCCCCCN[*:1])[*:2]

How the values were obtained:
B1 bradykinin receptor = biological target: T1, B1 bradykinin receptor (Rattus norvegicus, UniProt P97583); test: Compound was evaluated for agonist activity against B1 receptor in rat ileum longitudinal smooth muscle; format: functional, tissue-based
T1 sequence (P97583 whole entry): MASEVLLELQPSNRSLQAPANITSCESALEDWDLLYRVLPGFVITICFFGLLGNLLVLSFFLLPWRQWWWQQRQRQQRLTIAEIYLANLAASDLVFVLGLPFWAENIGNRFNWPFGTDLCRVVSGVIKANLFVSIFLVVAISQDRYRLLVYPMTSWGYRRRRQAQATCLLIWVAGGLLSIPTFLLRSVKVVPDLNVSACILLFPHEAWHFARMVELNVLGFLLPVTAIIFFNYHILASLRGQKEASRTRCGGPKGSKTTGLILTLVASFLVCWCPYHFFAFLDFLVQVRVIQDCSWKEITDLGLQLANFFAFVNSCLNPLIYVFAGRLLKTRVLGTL

B2 bradykinin receptor [1] = biological target: T2, B2 bradykinin receptor (Cavia porcellus, UniProt O70526); test: Compound was evaluated for inhibitory activity against [3H]BK in the classical guinea pig ileum B2 binding assay; format: tissue-based
T2 sequence (O70526 whole entry): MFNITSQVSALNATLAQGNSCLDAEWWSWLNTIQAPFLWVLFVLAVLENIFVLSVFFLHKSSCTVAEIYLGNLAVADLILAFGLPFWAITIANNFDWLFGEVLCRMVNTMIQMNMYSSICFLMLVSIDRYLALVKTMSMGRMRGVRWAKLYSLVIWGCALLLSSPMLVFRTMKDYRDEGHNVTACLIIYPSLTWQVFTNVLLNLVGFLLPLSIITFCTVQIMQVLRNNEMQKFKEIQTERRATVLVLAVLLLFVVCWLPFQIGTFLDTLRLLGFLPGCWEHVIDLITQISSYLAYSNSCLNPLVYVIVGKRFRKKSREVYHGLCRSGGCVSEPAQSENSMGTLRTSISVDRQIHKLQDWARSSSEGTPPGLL

B2 bradykinin receptor [2] = biological target: T2, B2 bradykinin receptor; test: Functional antagonism against BK-induced contractions in the classical guinea pig ileum B2 binding assay; format: tissue-based; details: read-out: pA2 (converted)
B2 bradykinin receptor [3] = biological target: T3, B2 bradykinin receptor (Homo sapiens, UniProt P30411); test: Compound was evaluated for inhibitory activity against [3H]BK in membrane preparations from a stable cell line that expresses the human B2 receptor
T3 sequence (P30411 whole entry): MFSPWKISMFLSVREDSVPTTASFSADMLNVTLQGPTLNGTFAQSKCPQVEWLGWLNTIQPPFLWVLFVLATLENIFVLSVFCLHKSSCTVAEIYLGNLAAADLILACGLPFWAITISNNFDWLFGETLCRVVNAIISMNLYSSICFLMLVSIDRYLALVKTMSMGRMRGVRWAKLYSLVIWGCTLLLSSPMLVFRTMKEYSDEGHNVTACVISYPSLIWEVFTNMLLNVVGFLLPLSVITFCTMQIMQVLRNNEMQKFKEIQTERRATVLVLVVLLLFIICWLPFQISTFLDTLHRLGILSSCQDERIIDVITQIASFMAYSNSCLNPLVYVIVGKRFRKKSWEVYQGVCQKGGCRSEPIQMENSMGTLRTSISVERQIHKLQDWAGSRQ

NCCCC[C@H](N)C(=O)N[C@@H](CCCN=C(N)N)C(=O)N1CCC[C@H]1C(=O)N1CCC[C@H]1C(=O)NCC(=O)N[C@@H](Cc1ccccc1)C(=O)N[C@@H](CO)C(=O)N1CCC[C@H]1C(=O)N[C@@H](Cc1ccccc1)C(=O)O
EC50 (B1 bradykinin receptor): 0.085 µM

N=C(N)NCCC[C@H](NC(=O)[C@H](N)CCCN=C(N)N)C(=O)NCCCCCCCCCCCC(=O)N[C@@H](CO)C(=O)N1CCc2ccccc2[C@@H]1C(=O)N1C2CCCCC2C[C@H]1C(=O)N[C@@H](CCCN=C(N)N)C(=O)O (stereo not given in full)
Ki (B2 bradykinin receptor [1]): 0.36 µM
Kb (B2 bradykinin receptor [2]): 3.16 µM

NCCCC[C@H](N)C(=O)N[C@@H](CCCN=C(N)N)C(=O)NCCCCCCCCCCCCC(=O)N[C@@H](CO)C(=O)N1CCC[C@H]1C(=O)N[C@@H](Cc1ccccc1)C(=O)O (H-KR[X1]SPF-OH)
EC50 (B1 bradykinin receptor): 0.98 µM

NC(N)=NCCC[C@H](NC(=O)[C@@H]1CC2CCCCC2N1C(=O)[C@H]1c2ccccc2CCN1C(=O)[C@H](CO)NC(=O)CCCCCCCCCCCCNC(=O)[C@H](CCCN=C(N)N)NC(=O)[C@@H](N)CCCN=C(N)N)C(=O)O (stereo not given in full) (H-RR[X1]S[X2][Oic(3aξ,7aξ)]R-OH)
Ki (B2 bradykinin receptor [3]): 0.044 µM
